The record followed here is PubChem BioAssay AID179 (DTP/NCI, 2004).

Several values for one entry are separate records, joined by “and”; a condition that tells them apart may be missing. Equal entries are not always repeated. Activity calls are given as the source filed them.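 The calls were made as follows: active = compounds giving half or more protection of infected cells from virus-caused growth loss, again on retest; inactive = the rest.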 *1 amine or outer side, *2 acyl side, *3 side chain or, on linkers, in order; H or OH if unused. Where a SMILES comes first, the peptide text is derived from it. [ ]: non-standard residue; d: D form. The star is where a group is joined. ξ: configuration not given here. Dnp = O=[N+]([O-])c1ccc(*)c([N+](=O)[O-])c1; CO = O=C([*:1])[*:2]; Bz = O=C(c1ccccc1)*; ξC = NC(CS)C(=O)O

This experiment relates to CEM cells HIV-1 protection, formazan growth assay. Kind of experiment: NCI AIDS Antiviral Assay. As to conditions: for IC50: measured here: growth of uninfected CEM cells. The gist of the method: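 CEM (human) cells, HIV-1 infected vs uninfected, 5-point dosing, formazan growth read-out. Retest threshold 50% protection.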

One may read the EC50 as the concentration that produces a half-maximal response. Usually IC50 stands for the concentration that gives 50% inhibition. In the case of `O=C(Nc1nc(C23CC4CC(CC(C4)C2)C3)cs1)c1cc2c(ccc3ccccc32)oc1=O`, the EC50 is more than 200 µM and the IC50 is more than 200 µM.
Consider `COC(=O)C1(SC)C2CCC3C2CCC31` (stereo not given), for which the EC50 is more than 200 µM and the IC50 is more than 200 µM.
In the case of `COc1ccc(/C=C2/C(=O)NC3SC=C(c4cccc([N+](=O)[O-])c4)N23)cc1` (stereo not given), the EC50 is more than 200 µM and the half-inhibitory concentration (IC50) was determined as 83.2 µM.
The corresponding values for `CCOC(=O)C(NC(=O)Nc1ccc(Cl)c(Cl)c1)C(F)(F)F` (stereo not given) are more than 200 µM and 141 µM.
For `COC(=O)C1(NC(=O)C(Cc2ccccc2)N(C(=O)OC(C)(C)C)C(=O)OC(C)(C)C)CCCC1` (stereo not given), in that order: more than 200 µM and 110 µM.
The corresponding values for `COC(=O)C(CSc1ccc([N+](=O)[O-])cc1[N+](=O)[O-])NC(=O)CNC(=O)c1ccccc1` (stereo not given) (Bz-Gly-[ξC](Dnp)-OMe) are more than 15.5 µM and more than 15.5 µM.
With `C=CCC(N)Cc1ccccc1` (stereo not given), the EC50 is more than 200 µM and the IC50 was more than 200 µM.
Consider `COc1ccc(/C=C\c2cc(OC)c(OC)c(OC)c2)cc1OC(=O)CC(NC(=O)OC(C)(C)C)C(=O)OC(C)(C)C` (stereo not given), for which the EC50 is more than 2 µM and the IC50 is 0.00331 µM.
As for `C=CCNC(=S)/N=C/c1c(O)[nH]c(=O)[nH]c1=O`, the outcome was inactive.
Turning to `CCOc1ccccc1NC(=O)C(=O)CC(=O)c1sc(Nc2nnc(-c3ccc(Cl)c(Cl)c3)o2)nc1C`, the EC50 is more than 33.9 µM and the IC50 was more than 33.9 µM.
As for `NNc1[nH]c(=S)[nH]c1C(N)=O`, the EC50 was more than 200 µM and the IC50 is more than 200 µM.
Regarding `CCOC(=O)c1cn(-c2ccc([N+](=O)[O-])cc2)c(=S)n2c1nc1ccccc12`, the EC50 was more than 200 µM and the half-inhibitory concentration (IC50) is 9.33 µM.
For `CS(=O)(=O)NNS(=O)(=O)c1ccccc1`, in that order: more than 75.9 µM and more than 75.9 µM.
For `C[N+](C)(C)CC1CCc2ccccc2C1=O` (stereo not given), in that order: more than 724 µM and 1.32 µM.
For `CC(C)(C)c1ccc(OP(=S)(NN)Oc2ccc(C(C)(C)C)cc2)cc1`, in that order: more than 61.7 µM and 30.2 µM.
As for `C=CCOCn1cc(F)c(=O)[nH]c1=O`, the EC50 is more than 200 µM and the IC50 was more than 200 µM.
As to `C/C(O)=C(/C=N\C(=S)Nc1ccc(S(=O)(=O)Nc2nccs2)cc1)C(=O)Nc1ccccc1C`, the EC50 was more than 200 µM and the half-inhibitory concentration (IC50) was 30.2 µM.
The corresponding values for `O=C(Nc1cc(Cl)c(Cl)cc1Cl)C(=O)C(C(=O)c1ccc(Cl)c(Cl)c1)C1OC(=O)c2ccccc21` (stereo not given) are more than 45.7 µM and 22.4 µM.
The corresponding values for `CN(CO)c1nc(N(C)CO)nc(N(C)CO)n1` are more than 26.3 µM and 24 µM.
Consider `COC(=NC(C)C)NC(C)C`, for which the EC50 was more than 200 µM and the IC50 was more than 200 µM.
Turning to `CC(=O)Nc1ccc(S(=O)(=O)N/N=C(/C)C2CCOC2=O)cc1` (stereo not given), the EC50 was more than 741 µM and the IC50 was more than 741 µM.
Take `CCOc1ncn(-c2ccc(NC(=S)NC3OC(CO)C(O)C(O)C3O)cc2)n1` (stereo not given): the EC50 is more than 200 µM and the IC50 was more than 200 µM.
Take `COc1cc(/C=C/C(=O)OC[C@]23O[C@H]2[C@@H](OC2OC(C)C(O)C(O)C2O)C2C=CO[C@@H](OC4OC(CO)C(O)C(O)C4O)C23)ccc1O` (stereo not given in full): the EC50 was more than 200 µM and the IC50 was more than 200 µM.
Regarding `NC(CCc1nc(-c2ccc(Cl)cc2)cs1)C(=O)O` (stereo not given), the result was inactive.
Take `C=C1C(=O)SC(=NCc2ccccc2)N1C`: the EC50 is more than 204 µM and the IC50 was found to be 132 µM.
Take `O=C(CSc1nnc(-c2ccc(N=Cc3ccc(Cl)cc3)cc2)o1)Nc1ccc([N+](=O)[O-])cc1`: the EC50 was more than 38 µM and the IC50 stood at 15.5 µM.
For `Cc1ccc(C)c(NC(=O)C(=O)C(c2cnc3ccc([N+](=O)[O-])cc3n2)[N+](=O)[O-])c1` (stereo not given), in that order: more than 123 µM and more than 123 µM.
As for `CN(C)c1ccc(/C=C2\C=Cc3ccccc32)c(F)c1`, the EC50 is more than 14.1 µM and the IC50 was more than 14.1 µM.
In the case of `O=C(O)c1cscc1Cc1cccs1`, the EC50 is more than 200 µM and the IC50 is more than 200 µM.
In the case of `OC(C#CCN1CCCC1)(c1ccccc1)c1ccccc1Cl.[C-]#[O+].[C-]#[O+].[C-]#[O+].[C-]#[O+].[C-]#[O+].[C-]#[O+].[Co].[Co]` (stereo not given), the EC50 is more than 200 µM and the IC50 amounted to 5.25 µM.
For `O=C(Cn1c2ccc(Br)cc2c2nc3ccccc3nc21)NNC(=S)NC1CCCCC1`, in that order: more than 200 µM and 36.3 µM.
Take `Cc1c2ccccc2c(CSCCC(N)C(=O)O)c2ccccc12` (stereo not given): the EC50 was more than 200 µM and the IC50 is more than 200 µM.
`Cc1ccc2c(c1)[nH]c(=S)n2/C=C(/C#N)c1ccc([N+](=O)[O-])cc1`: the EC50 was more than 200 µM and the IC50 is more than 200 µM.
For the compound `Cc1cc(NS(=O)(=O)c2ccc(Nc3c4ccccc4nc4c(C(=O)NCCN(C)C)ccc(Cl)c34)cc2)no1`, the result was inactive.
Take `O=C(O)C1Cc2c([nH]c3ccccc23)C(C2CCNC2=S)N1` (stereo not given): the result was inactive.
Regarding `Cc1c(C)c(C)c(Cn2[nH]c(=O)n(C)c2=O)c(C)c1C`, the EC50 is more than 200 µM and the IC50 was more than 200 µM.
Regarding `COC(=O)[C@H](Cc1ccccc1)NC(=O)N[C@@H](C)C(=O)N[C@H](C(=O)N[C@H](C=O)Cc1ccccc1)C(C)C` ({OMe-Phe-CO}-Ala-Val-Phe-aldehyde), the EC50 is more than 200 µM and the IC50 stood at 4.79 µM.
On to `COc1cc(OC)c2nc(C)c3c(c2c1)SCC3`, for which the EC50 was more than 200 µM and the IC50 was more than 200 µM.
For `CCOC(=O)c1c(NS(=O)(=O)c2ccc(Br)cc2)sc2c1CCCC2`, the outcome was inactive.
As for `COc1cc(OC)nc(Nc2c(C#N)c3nc4ccccc4n3c3ccccc23)n1`, the EC50 is more than 100 µM and the IC50 was more than 100 µM.
As to `COCCN(C(=O)c1ccccc1)C1CCC2(SCCS2)c2[nH]c3ccccc3c21` (stereo not given), the EC50 was more than 200 µM and the IC50 was 24 µM.
`CC(=O)N(C(C)=O)c1c(C)cc(-c2ccccc2)oc1=O`: the EC50 was more than 200 µM and the IC50 was more than 200 µM.
On to `CN(C)CCOC1(Cc2ccc(F)cc2)CCC(C(C)(C)C)CC1` (stereo not given), for which the EC50 was more than 200 µM; the IC50 was 3.89 µM and 3.98 µM.
With `CN(O)C(=S)c1ccccc1`, the EC50 was more than 14.8 µM and the concentration for half-maximal inhibition (IC50) stood at 0.112 µM.
The corresponding values for `O=C(NNc1ccccc1)NNc1ccccc1` (tested in a mixture with another compound) are more than 200 µM and 31.6 µM.
The corresponding values for `COc1ccc(/C=C2\C=C3OCOC3=CC2=O)cc1` are more than 10.7 µM and more than 10.7 µM.
`COc1ccc(-c2cc(NC(=O)c3ccccc3)c(=O)oc2C)cc1`: the EC50 is more than 200 µM and the 50% inhibitory concentration (IC50) is more than 200 µM.
For `C=CCCN(C=O)CCC/C(=C/CCCC)[Si](C)(C)C`, the EC50 is more than 24.5 µM and the IC50 was more than 24.5 µM.
On to `Nc1c([N+](=O)[O-])nc(Cl)c2nncn12`, for which the EC50 was more than 234 µM and the IC50 is 120 µM.
For `COc1ccc(-c2nc(-c3cnccn3)n(C3OC(CO)C(O)C3O)n2)cc1` (stereo not given), in that order: more than 200 µM and more than 200 µM.
